# Laboratory results taken from PubChem BioAssay AID1963979 (Molecular Pharmacology Branch, DTP, NCI, 2024).
# Tested on: 361931-004-R-J1-PDC multicell spheroid viability
# Assay: Anticancer human tumor 361931-004-R-J1-PDC patient-derived colon adenocarcinoma cell line growth inhibition [PI3K]
# Conditions: for IC50: curve of first compound; for viability, T/C: stronger effect = lower value
# Outline: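 Tumor cells were combined with HUVEC and MSCs into spheroids, then dosed with PI3K-inhibitor combinations over half-log ranges capped near clinical Cmax or 10 microM.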
# [1] = second compound 0.00316 µM, first compound 0.0316 µM
# [2] = second compound 0.00316 µM, first compound 0.1 µM
# [3] = second compound 0.00316 µM, first compound 0.316 µM
# [4] = second compound 0.00316 µM, first compound 1 µM
# [5] = second compound 0.00316 µM, first compound 3.16 µM
# [6] = second compound 0.00316 µM, first compound 10 µM
# [7] = second compound 0.01 µM, first compound 0.0316 µM
# [8] = second compound 0.01 µM, first compound 0.1 µM
# [9] = second compound 0.01 µM, first compound 0.316 µM
# [10] = second compound 0.01 µM, first compound 1 µM
# [11] = second compound 0.01 µM, first compound 3.16 µM
# [12] = second compound 0.01 µM, first compound 10 µM
# [13] = second compound 0.0316 µM, first compound 0.0316 µM
# [14] = second compound 0.0316 µM, first compound 0.1 µM
# [15] = second compound 0.0316 µM, first compound 0.316 µM
# [16] = second compound 0.0316 µM, first compound 1 µM
# [17] = second compound 0.0316 µM, first compound 3.16 µM
# [18] = second compound 0.0316 µM, first compound 10 µM
# [19] = second compound 0.1 µM, first compound 0.0316 µM
# [20] = second compound 0.1 µM, first compound 0.1 µM
# [21] = second compound 0.1 µM, first compound 0.316 µM
# [22] = second compound 0.1 µM, first compound 1 µM
# [23] = second compound 0.1 µM, first compound 3.16 µM
# [24] = second compound 0.1 µM, first compound 10 µM
# [25] = second compound 0.316 µM, first compound 0.0316 µM
# [26] = second compound 0.316 µM, first compound 0.1 µM
# [27] = second compound 0.316 µM, first compound 0.316 µM
# [28] = second compound 0.316 µM, first compound 1 µM
# [29] = second compound 0.316 µM, first compound 3.16 µM
# [30] = second compound 0.316 µM, first compound 10 µM
# [31] = second compound 1 µM, first compound 0.0316 µM
# [32] = second compound 1 µM, first compound 0.1 µM
# [33] = second compound 1 µM, first compound 0.316 µM
# [34] = second compound 1 µM, first compound 1 µM
# [35] = second compound 1 µM, first compound 3.16 µM
# [36] = second compound 1 µM, first compound 10 µM
# 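Further: spheroids exposed to agents for seven days before readout.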
smiles,measurement,setting,value
CC1(C)CCC(Nc2ncc(C(F)(F)F)c(-c3c[nH]c4c(P(C)(C)=O)c(C#N)ccc34)n2)CN1 (stereo unspecified) + CC(Nc1ccc2c(c1)OCCn1cc(N3C(=O)OCC3C(F)F)nc1-2)C(N)=O,IC50,second compound 0.00316 µM,4250 nM
same,IC50,second compound 0.01 µM,4370 nM
same,IC50,second compound 0.0316 µM,3950 nM
same,IC50,second compound 0.1 µM,3550 nM
same,IC50,second compound 0.316 µM,3630 nM
same,IC50,second compound 1 µM,2060 nM
same,"viability, T/C",[1],72.1%
same,"viability, T/C",[2],78.7%
same,"viability, T/C",[3],76.4%
same,"viability, T/C",[4],72.6%
same,"viability, T/C",[5],66.1%
same,"viability, T/C",[6],3.82%
same,"viability, T/C",[7],84.2%
same,"viability, T/C",[8],79.8%
same,"viability, T/C",[9],75%
same,"viability, T/C",[10],77.9%
same,"viability, T/C",[11],67.8%
same,"viability, T/C",[12],4.66%
same,"viability, T/C",[13],78.7%
same,"viability, T/C",[14],69.8%
same,"viability, T/C",[15],70.8%
same,"viability, T/C",[16],67.1%
same,"viability, T/C",[17],62.2%
same,"viability, T/C",[18],3.26%
same,"viability, T/C",[19],84.2%
same,"viability, T/C",[20],72.3%
same,"viability, T/C",[21],64.9%
same,"viability, T/C",[22],69.5%
same,"viability, T/C",[23],57%
same,"viability, T/C",[24],3.49%
same,"viability, T/C",[25],66.6%
same,"viability, T/C",[26],64.2%
same,"viability, T/C",[27],61.1%
same,"viability, T/C",[28],68.4%
same,"viability, T/C",[29],55.5%
same,"viability, T/C",[30],3.54%
same,"viability, T/C",[31],64.5%
same,"viability, T/C",[32],52.5%
same,"viability, T/C",[33],56.4%
same,"viability, T/C",[34],56.7%
same,"viability, T/C",[35],46.2%
same,"viability, T/C",[36],3.28%
Cn1ncc(Cl)c1-c1cc(C(=O)NC(CN)Cc2cccc(F)c2)sc1Cl (stereo unspecified) + CC(Nc1ccc2c(c1)OCCn1cc(N3C(=O)OCC3C(F)F)nc1-2)C(N)=O,IC50,second compound 0.00316 µM,1090 nM
same,IC50,second compound 0.01 µM,900 nM
same,IC50,second compound 0.0316 µM,695 nM
same,IC50,second compound 0.1 µM,730 nM
same,IC50,second compound 0.316 µM,965 nM
same,IC50,second compound 1 µM,654 nM
same,"viability, T/C",[1],92.5%
same,"viability, T/C",[2],91.9%
same,"viability, T/C",[3],76.6%
same,"viability, T/C",[4],50.9%
same,"viability, T/C",[5],32.2%
same,"viability, T/C",[6],22.6%
same,"viability, T/C",[7],99%
same,"viability, T/C",[8],94.5%
same,"viability, T/C",[9],68.7%
same,"viability, T/C",[10],48.4%
same,"viability, T/C",[11],29%
same,"viability, T/C",[12],15.4%
same,"viability, T/C",[13],103%
same,"viability, T/C",[14],110%
same,"viability, T/C",[15],75.2%
same,"viability, T/C",[16],37.3%
same,"viability, T/C",[17],25.8%
same,"viability, T/C",[18],12.8%
same,"viability, T/C",[19],85%
same,"viability, T/C",[20],87.7%
same,"viability, T/C",[21],67%
same,"viability, T/C",[22],41.6%
same,"viability, T/C",[23],26.1%
same,"viability, T/C",[24],12.8%
same,"viability, T/C",[25],90.1%
same,"viability, T/C",[26],77.9%
same,"viability, T/C",[27],68.8%
same,"viability, T/C",[28],54.2%
same,"viability, T/C",[29],22.4%
same,"viability, T/C",[30],14.6%
same,"viability, T/C",[31],82.6%
same,"viability, T/C",[32],79.4%
same,"viability, T/C",[33],59.5%
same,"viability, T/C",[34],45.1%
same,"viability, T/C",[35],24%
same,"viability, T/C",[36],16.1%
Cn1nccc1Nc1nccc(-c2ccn(C(CO)c3ccc(Cl)c(F)c3)c(=O)c2)n1 (stereo unspecified) + CC(Nc1ccc2c(c1)OCCn1cc(N3C(=O)OCC3C(F)F)nc1-2)C(N)=O,IC50,second compound 0.00316 µM,8690 nM
same,IC50,second compound 0.01 µM,7800 nM
same,IC50,second compound 0.0316 µM,6080 nM
same,IC50,second compound 0.1 µM,3100 nM
same,IC50,second compound 0.316 µM,2310 nM
same,IC50,second compound 1 µM,1090 nM
same,"viability, T/C",[1],103%
same,"viability, T/C",[2],96.7%
same,"viability, T/C",[3],92.7%
same,"viability, T/C",[4],88.8%
same,"viability, T/C",[5],76.6%
same,"viability, T/C",[6],45.6%
same,"viability, T/C",[7],120%
same,"viability, T/C",[8],105%
same,"viability, T/C",[9],93.9%
same,"viability, T/C",[10],84.1%
same,"viability, T/C",[11],76.5%
same,"viability, T/C",[12],41.4%
same,"viability, T/C",[13],106%
same,"viability, T/C",[14],93%
same,"viability, T/C",[15],85.8%
same,"viability, T/C",[16],82.5%
same,"viability, T/C",[17],70.6%
same,"viability, T/C",[18],36%
same,"viability, T/C",[19],97.6%
same,"viability, T/C",[20],97.8%
same,"viability, T/C",[21],89.3%
same,"viability, T/C",[22],71.9%
same,"viability, T/C",[23],50.5%
same,"viability, T/C",[24],25.5%
same,"viability, T/C",[25],95.3%
same,"viability, T/C",[26],86.5%
same,"viability, T/C",[27],77.8%
same,"viability, T/C",[28],72.9%
same,"viability, T/C",[29],40.7%
same,"viability, T/C",[30],13.2%
same,"viability, T/C",[31],69.8%
same,"viability, T/C",[32],83.3%
same,"viability, T/C",[33],70%
same,"viability, T/C",[34],52.1%
same,"viability, T/C",[35],22.8%
same,"viability, T/C",[36],9.78%
